For five compounds, Activity results are on record in ChEMBL document CHEMBL2331314, “Dorsamin-A's, glycerolipids carrying a dehydrophenylalanine ester moiety from the seed-eating larvae of the bruchid beetle Bruchidius dorsalis” (J Nat Prod, 2013).

This experiment is described as follows: Antioxidant activity assessed as concentration required to 50 % ABTS radical scavenging activity absorbance at 734 nm. It counts as functional.
Take `COC(=O)C(=O)Cc1ccccc1`: the Activity was 8.8 µM.

Regarding `CCCCCCCC/C=C/CCCCCCCC(=O)OC[C@H](COC(=O)/C(N)=C/c1ccccc1)OC(=O)CCCCCCC/C=C/CCCCCCCC`, the Activity was 11 µM.

`COC(=O)/C(N)=C/c1ccccc1`: the Activity turned out to be 9.6 µM. With `Cc1c(C)c2c(c(C)c1O)CCC(C)(C(=O)O)O2` (stereo not given), the Activity is 19 µM. As to `COC(=O)/C=C/c1ccccc1`, the Activity is > 1000 µM.
